# pIC50: −log10 of the molar value. Entries after “also recorded” stand apart in the source; their conditions may differ. Marks after values point to notes of the source that are not given here.
# Legend:
# PDE5 = PDE5 (Homo sapiens, UniProt O76074); experiment: Phosphodiesterase 5 enzyme activity assay; assay type: biochemical; settings: for inhibition at 10 µM: read-out: PDE5 activity, decrease (↓, inhibition); for effect on PDE5 activity (in words): 10 μM; for PDE5 activity, increase (↑, enhancement): 10 μM compound
# [1] = assay type: in vivo, White New Zealand rabbits; settings: normotensive rabbits; for MABP: mean arterial blood pressure, i.v. (jugular vein), means ± SE, n = 4
# ovine COX-1 = molecular target: T1, ovine COX-1 (Ovis aries, UniProt P05979); experiment: In vitro COX-1 inhibition, enzyme immunoassay; assay type: biochemical
# T1 sequence (P05979 25-600): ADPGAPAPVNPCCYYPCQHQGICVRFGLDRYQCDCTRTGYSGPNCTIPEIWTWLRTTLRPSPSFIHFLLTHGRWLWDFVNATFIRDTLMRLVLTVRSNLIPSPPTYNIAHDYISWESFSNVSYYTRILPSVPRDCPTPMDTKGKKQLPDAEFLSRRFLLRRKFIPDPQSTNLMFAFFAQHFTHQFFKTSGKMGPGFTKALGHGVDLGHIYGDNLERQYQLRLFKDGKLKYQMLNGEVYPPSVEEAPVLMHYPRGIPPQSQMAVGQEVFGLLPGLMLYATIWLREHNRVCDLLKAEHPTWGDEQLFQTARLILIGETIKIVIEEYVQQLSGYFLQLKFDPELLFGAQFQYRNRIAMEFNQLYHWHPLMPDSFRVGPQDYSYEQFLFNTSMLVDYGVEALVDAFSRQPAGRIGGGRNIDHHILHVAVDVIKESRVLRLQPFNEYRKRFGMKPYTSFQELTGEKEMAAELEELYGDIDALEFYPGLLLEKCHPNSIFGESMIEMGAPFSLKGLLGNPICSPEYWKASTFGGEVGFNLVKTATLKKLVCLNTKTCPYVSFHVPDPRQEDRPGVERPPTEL
# human recombinant COX-2 = molecular target: T2, human recombinant COX-2 (Homo sapiens, UniProt P35354); experiment: In vitro COX-2 inhibition, enzyme immunoassay; assay type: biochemical; settings: for COX-2 S.I. (COX-1/COX-2): IC50 (COX-1)/IC50 (COX-2)
# T2 sequence (P35354 18-604): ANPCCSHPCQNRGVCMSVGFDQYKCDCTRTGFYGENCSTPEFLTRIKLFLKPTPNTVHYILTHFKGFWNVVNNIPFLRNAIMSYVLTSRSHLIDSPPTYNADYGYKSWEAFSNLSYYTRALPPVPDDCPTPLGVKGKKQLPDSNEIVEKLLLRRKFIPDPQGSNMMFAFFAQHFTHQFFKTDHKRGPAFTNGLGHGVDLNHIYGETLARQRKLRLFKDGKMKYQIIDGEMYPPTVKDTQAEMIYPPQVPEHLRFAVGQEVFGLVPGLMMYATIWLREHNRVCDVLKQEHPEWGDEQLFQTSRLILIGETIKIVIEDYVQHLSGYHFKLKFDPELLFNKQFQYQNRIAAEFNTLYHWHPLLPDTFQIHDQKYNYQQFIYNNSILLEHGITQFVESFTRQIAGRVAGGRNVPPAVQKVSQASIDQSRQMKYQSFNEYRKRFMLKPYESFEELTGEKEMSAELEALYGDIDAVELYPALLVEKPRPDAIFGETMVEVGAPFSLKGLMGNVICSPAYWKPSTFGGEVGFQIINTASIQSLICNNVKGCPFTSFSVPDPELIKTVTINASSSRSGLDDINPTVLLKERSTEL
Structure (SMILES),inhibition at 10 µM (PDE5),MABP [1],MABP compared with control (in words) [1],pIC50 (ovine COX-1),pIC50 (human recombinant COX-2),COX-2 S.I. (COX-1/COX-2) (human recombinant COX-2),effect on PDE5 activity (in words) (PDE5),"PDE5 activity, increase (↑, enhancement) (PDE5)",MABP compared with sildenafil (in words) [1]
"C/C(=C/C(=O)Nc1nccs1)Nc1ccc(Cl)cc1 [Compound 23c, (Z)-3-((4-chlorophenyl)amino)-N-(thiazol-2-yl)but-2-enamide]",100%,100,without causing hypotension; also recorded: higher than the control values in a nonsignificant manner,5.20,6.21,10.38,–,–,–
"CCOC(=O)CCC(=O)Nc1nccs1 [Compound 11, ethyl 4-oxo-4-(thiazol-2-ylamino)butanoate]",–,85^&,insignificantly lower than the control values,5.77,6.68,8.1,very low activity,3.5%,significantly higher than the sildenafil values
"CC(=O)c1c(C)[nH]c(C(=O)Nc2nccs2)c1C [Compound 5b, 4-Acetyl-3,5-dimethyl-N-(thiazol-2-yl)-1H-pyrrole-2-carboxamide]",–,98,higher than the control values in a nonsignificant manner,5.89,6.62,5.4,very low activity,15%,–
"COc1ccc(N/C(C)=C\C(=O)Nc2nccs2)cc1 [Compound 23b, (Z)-3-((4-methoxyphenyl)amino)-N-(thiazol-2-yl)but-2-en-amide]",100%,110^##,significantly higher; also recorded: without a notable decrease in MABP,5.24,6.25,10.25,increased the PDE5 activity; also recorded: very low activity,15%,–
"CC(=O)C(C(C)=O)C(=O)Nc1nccs1 [Compound 17, 2-acetyl-3-oxo-N-(thiazol-2-yl)butanamide]",–,87^&,insignificantly lower than the control values,5.85,7.05,15.56,increased the PDE5 activity,371%,significantly higher than the sildenafil values
"Cc1cc(O)n(-c2nccs2)n1 [Compound 7, 3-methyl-1-(thiazol-2-yl)-1H-pyrazol-5-ol]",75%,81^#,significantly lower than that of the control,5.20,6.20,10.06,–,–,insignificantly higher than the sildenafil one
"CCOC(=O)c1c(C)[nH]c(C(=O)Nc2nccs2)c1C [Compound 5a, Ethyl 2,4-dimethyl-5-(thiazol-2-ylcarbamoyl)-1H-pyrrole-3-carboxylate]",–,108^##,significantly higher,5.80,7.00,16,increased the PDE5 activity,222%,–
"CC(=O)C(=NO)C(=O)Nc1nccs1 [Compound 2, 2-(hydroxyimino)-3-oxo-N-(thiazol-2-yl)butanamide]",53%,115^##,significantly higher,5.82,6.96,13.64,–,–,–
"CCCc1nn(C)c2c(=O)[nH]c(-c3cc(S(=O)(=O)N4CCN(C)CC4)ccc3OCC)nc12 [Sildenafil, sildenafil, reference compound]",100%,72.50 ± 2.9,–,–,–,–,–,–,–
"C/C(=C/C(=O)Nc1nccs1)Nc1ccccc1 [Compound 23a, (Z)-3-(phenylamino)-N-(thiazol-2-yl)but-2-enamide]",100%,108,without causing hypotension; also recorded: higher than the control values in a nonsignificant manner; also recorded: without a notable decrease in MABP,5.20,6.15,8.87,–,–,–

# Reference: article PMC9056166 (RSC Advances, 2020)
